Data on 18 molecules can be found in patent US20240101521A1, “DIAMINOTRIAZINE COMPOUNDS” (BASF SE, priority 2021, published 2024).

Experiment in all cases: greenhouse pre-emergence herbicidal test
Common to all, as to assay type: in vivo
What all share (conditions): scale 0 to 100

For experiment [1], the system named is Abutilon theophrasti. An excerpt: (§1) The culture containers used were plastic flowerpots containing loamy sand with approximately 3.0% of humus as the substrate. The seeds of the test plants were sown separately for each species.
(§2) For the pre-emergence treatment, the active ingredients, which had been suspended or emulsified in water, were applied directly after sowing by means of finely distributing nozzles. The containers were irrigated gently to promote germination and growth and subsequently covered with transparent plastic hoods until the plants had rooted. This cover caused uniform germination of the test plants, unless this had been impaired by the active ingredients. For the post-emergence treatment, the test plants were first grown to a height of 3 to 15 cm, depending on the plant habit, and only then treated with the active ingredients which had been suspended or emulsified in water. For this purpose, the test plants were either sown directly and grown in the same containers, or they were first grown separately as seedlings and transplanted into the test containers a few days prior to treatment.
(§3) Depending on the species, the plants were kept at 10-25° C. or 20-35° C., respectively.
(§4) The test period extended over 2 to 4 weeks. During this time, the plants were tended, and their response to the individual treatments was evaluated.
(§5) Evaluation was carried out using a scale from 0 to 100. 100 means no emergence of the plants, or complete destruction of at least the aerial moieties, and 0 means no damage, or normal course of growth. A moderate herbicidal activity is given at values of at least 60, a good herbicidal activity is given at values of at least 70, and a very good herbicidal activity is given at values of at least 85.
(§6) The plants used in the greenhouse experiments were of the following species: […]

In experiment [2] the test system is Echinochloa crus-galli.
Excerpt: as §1, §2, §3, §4, §5, §6

Experiment [3] has as its system Setaria faberi.
Excerpt: as §1, §2, §3, §4, §5, §6

Experiment [4] has as its system Amaranthus retroflexus.
Excerpt: as §1, §2, §3, §4, §5, §6

Turning to `C#CCOc1c(Br)cc(Br)c(F)c1Nc1nc(N)nc(C(C)(C)F)n1` [Example 65], the herbicidal activity in experiment [1] (pre-emergence, 62 g/ha) turned out to be 100%; in experiment [2] (pre-emergence, 62 g/ha) it was 100%; in experiment [3] (pre-emergence, 62 g/ha) it was 100%.

For the molecule `CC#CCOc1c(Br)cc(F)c(F)c1Nc1nc(N)nc(C2(F)CCCC2)n1` [Example 16], the herbicidal activity stood at 100% in experiment [1] (pre-emergence, 250 g/ha); 100% in experiment [4] (pre-emergence, 250 g/ha); 100% in experiment [2] (pre-emergence, 250 g/ha).

`COc1c(Cl)cc(F)c(F)c1Nc1nc(N)nc(C(C)(C)F)n1` [Example 7, N4-(5-Chloro-2,3-difluoro-6-methoxy-phenyl)-6-(1-fluoro-1-methyl-ethyl)-1,3,5-triazine-2,4-diamine]: the herbicidal activity in experiment [1] (pre-emergence, 125 g/ha) is on record as 100%; in experiment [2] (pre-emergence, 125 g/ha) it was 100%; in experiment [3] (pre-emergence, 125 g/ha), 100%.

Regarding `CCC(C)(F)c1nc(N)nc(Nc2c(F)c(F)cc(Br)c2OC)n1` (stereo not drawn) [Example 117], the herbicidal activity in experiment [1] (pre-emergence, 62,5 g/ha) is 98%; in experiment [4] (pre-emergence, 62,5 g/ha) it was 100%; in experiment [3] (pre-emergence, 62,5 g/ha), 100%.

In the case of `C=CC(C)(F)c1nc(N)nc(Nc2c(F)c(F)cc(Br)c2OC)n1` (stereo not drawn) [Example 121], the herbicidal activity in experiment [1] (pre-emergence, 62,5 g/ha) came out at 100%; in experiment [4] (pre-emergence, 62,5 g/ha) it was 100%; in experiment [3] (pre-emergence, 62,5 g/ha), 100%.

With `COc1c(Cl)cc(F)c(F)c1Nc1nc(N)nc(C2(F)CCCCC2)n1` [Example 10], the herbicidal activity was determined as 100% in experiment [1] (pre-emergence, 250 g/ha); 100% in experiment [4] (pre-emergence, 250 g/ha); 100% in experiment [3] (pre-emergence, 250 g/ha).

For `C#CC(C)Oc1c(Cl)cc(F)c(F)c1Nc1nc(N)nc(C(C)(C)F)n1` (stereo not drawn) [Example 99], the herbicidal activity in experiment [1] (pre-emergence, 62 g/ha) amounted to 100%; in experiment [4] (pre-emergence, 62 g/ha), 100%; in experiment [3] (pre-emergence, 62 g/ha), 100%.

As to `COc1c(C)cc(Br)c(F)c1Nc1nc(N)nc(C(C)(C)F)n1` [Example 51], the herbicidal activity in experiment [1] (pre-emergence, 62 g/ha) was found to be 100%; in experiment [4] (pre-emergence, 62 g/ha) it was 100%; in experiment [3] (pre-emergence, 62 g/ha), 100%.

As for `CC#CCOc1c(Cl)cc(F)c(F)c1Nc1nc(N)nc(C2(F)CCCC2)n1` [Example 58], the herbicidal activity in experiment [1] (pre-emergence, 62,5 g/ha) is listed as 100%; in experiment [2] (pre-emergence, 62,5 g/ha), 100%; in experiment [3] (pre-emergence, 62,5 g/ha), 100%.

For the molecule `C=CC(C)(F)c1nc(N)nc(Nc2c(F)c(F)cc(Cl)c2OC)n1` (stereo not drawn) [Example 122], the herbicidal activity is recorded as 100% in experiment [1] (pre-emergence, 62,5 g/ha); 100% in experiment [4] (pre-emergence, 62,5 g/ha); 100% in experiment [3] (pre-emergence, 62,5 g/ha).

Turning to `C#CC(C)(F)c1nc(N)nc(Nc2c(F)c(F)cc(Cl)c2OC)n1` (stereo not drawn) [Example 118], the herbicidal activity in experiment [1] (pre-emergence, 62,5 g/ha) worked out at 100%; in experiment [4] (pre-emergence, 62,5 g/ha), 100%; in experiment [3] (pre-emergence, 62,5 g/ha), 100%.

For the molecule `CC(C)(F)c1nc(N)nc(Nc2c(F)c(F)cc(Br)c2OCF)n1` [Example 106], the herbicidal activity is 100% in experiment [1] (pre-emergence, 62,5 g/ha); 100% in experiment [2] (pre-emergence, 62,5 g/ha); 100% in experiment [3] (pre-emergence, 62,5 g/ha).

As for `COc1c(Cl)cc(F)c(F)c1Nc1nc(N)nc(C(C)(F)CBr)n1` (stereo not drawn) [Example 114], the herbicidal activity in experiment [1] (pre-emergence, 62,5 g/ha) was 100%; in experiment [4] (pre-emergence, 62,5 g/ha), 100%; in experiment [3] (pre-emergence, 62,5 g/ha), 100%.

As for `COc1c(Cl)cc(Cl)c(F)c1Nc1nc(N)nc(C(C)(C)F)n1` [Example 59], the herbicidal activity in experiment [1] (pre-emergence, 62,5 g/ha) was 100%; in experiment [2] (pre-emergence, 62,5 g/ha), 95%; in experiment [3] (pre-emergence, 62,5 g/ha) it was 100%.

In the case of `COc1c(Br)cc(Br)c(F)c1Nc1nc(N)nc(C2(F)CCCCC2)n1` [Example 9], the herbicidal activity in experiment [1] (pre-emergence, 250 g/ha) stood at 90%; in experiment [4] (pre-emergence, 250 g/ha) it was 100%; in experiment [3] (pre-emergence, 250 g/ha), 95%.

Take `CC(C)(F)c1nc(N)nc(Nc2c(F)c(F)cc(Br)c2OCC#CC2CC2)n1` [Example 29]: the herbicidal activity in experiment [1] (pre-emergence, 31 g/ha) was found to be 100%; in experiment [4] (pre-emergence, 31 g/ha) it was 100%; in experiment [3] (pre-emergence, 31 g/ha), 100%.

On to `CC#CCOc1c(Br)cc(F)c(F)c1Nc1nc(N)nc(C(C)(C)OC)n1` [Example 85], for which the herbicidal activity turned out to be 85% in experiment [1] (pre-emergence, 62 g/ha); 100% in experiment [2] (pre-emergence, 62 g/ha); 98% in experiment [3] (pre-emergence, 62 g/ha).

`C#CC(C)Oc1c(F)cc(F)c(F)c1Nc1nc(N)nc(C2(F)CCCC2)n1` (stereo not drawn) [Example 105]: the herbicidal activity in experiment [1] (pre-emergence, 62,5 g/ha) turned out to be 100%; in experiment [2] (pre-emergence, 62,5 g/ha) it was 100%; in experiment [3] (pre-emergence, 62,5 g/ha), 100%.
